This is an account of results in the NIST ThermoML archive (doi:10.1016/j.fluid.2014.08.014).

Numbers after ± are expanded uncertainties.

The term refractive index denotes the speed of light in vacuum divided by its phase velocity in the sample.

A short description of the data set: refractive index (Na D-line) (dimensionless). The settings on record: 293.15 K; 101.33 kPa; Liquid; Standard Abbe refractometry.

As for `CC(C)CO` [2-methyl-1-propanol], the refractive index is listed as 1.3955 ± 0.0005.

For the compound `CC(C)(C)O` [2-methylpropan-2-ol], the refractive index is 1.3881 ± 0.0005. As to `CCCCOC(C)=O` [butyl ethanoate], the refractive index is 1.3951 ± 0.0005.

For the compound `CCO` [ethanol], the refractive index worked out at 1.3616 ± 0.0005. With `O` [water], the refractive index is 1.3328 ± 0.0005.
